Source: EP1981504B1, “THIADIAZOLE DERIVATIVES FOR THE TREATMENT OF NEURO DEGENERATIVE DISEASES” (NV reMYND, priority 2006, dated 2007)
In brackets after ≈: the same amount, converted by molar mass.

Tested on: M17-SYNwt cells
Experiment: α-synuclein cytotoxicity assay (LDH leakage from paraquat-treated α-synuclein over-expressing neuroblastoma cells)
Assay type: cell-based, human
Details: paraquat 32 mM, 40 hours, LDH release; for %I: percent inhibition of synuclein cytotoxicity at most effective concentration of test compound, relative to untreated paraquat cells; for EC50: Homo sapiens, Neuroblastoma cell
Method in brief: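 M17 neuroblastoma cells over-expressing wild-type α-synuclein were challenged with paraquat, and cytotoxicity was read as LDH release. Protection was expressed as percent reduction of paraquat-induced LDH release relative to untreated paraquat cells and control cells. Actives were retested in 10-point duplicate dose responses.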

Compound	%I [%]	EC50 (10 point curves in duplicate) [µg/mL]	EC50 (µg/mL) (10 point curves in duplicate)
CC1CN(c2nc(Cc3ccc(F)cc3)ns2)CCN1C(=O)Nc1ccc(F)c(F)c1 (centres unmarked) [Compound 26, N-(3,4-difluorophenyl)-4-[3-(4-fluorobenzyl)-1,2,4-thiadiazol-5-yl]-2-methylpiperazine-1-carboxamide]	70		
COc1ccc(S(=O)(=O)N2CCN(c3nc(Cc4ccccc4OC)ns3)CC2)cc1 [Compound 203]	61	0.0062 (≈ 0.0135 µM)	
O=C(c1cccc(Cl)c1)N1CCN(c2nc(Cc3ccc(F)cc3)ns2)CC1 [Compound 138, 1-(3-chlorobenzoyl)-4-[3-(4-fluorobenzyl)-1,2,4-thiadiazol-5-yl]piperazine]	81	0.36 (≈ 0.863 µM)	
CC(C)(C)c1ccc(S(=O)(=O)N2CCN(c3nc(Cc4ccc(Cl)cc4)ns3)CC2)cc1 [Compound 69, 1-[4-tert-butylphenylsulfonyl]-4-[3-(4-chlorobenzyl)-1,2,4-thiadiazol-5-yl]piperazine]	31		
COc1cccc(Cc2nsc(N3CCN(C(=O)c4ccc5c(c4)OCO5)C(C)C3)n2)c1 (centres unmarked) [Compound 119, 1-(1,3-benzodioxol-5-ylcarbonyl)-4-[3-(3-methoxybenzyl)-1,2,4-thiadiazol-5-yl]-2-methylpiperazine]	72	0.095 (≈ 0.21 µM)	
Cc1ccc(Cc2nsc(N3CCN(S(=O)(=O)c4cccc(C(F)(F)F)c4)C(C)C3)n2)cc1 (centres unmarked) [Compound 56, 1-[3-trifluoromethylphenylsulfonyl]-4-[3-(4-methylbenzyl)-1,2,4-thiadiazol-5-yl]-2-methylpiperazine]	87		
CCC(C(=O)N1CCN(c2nc(Cc3ccc(F)cc3)ns2)CC1C)c1ccccc1 (centres unmarked) [Compound 8, 1-(2-phenylbutanoyl)-4-[3-(4-fluorobenzyl)-1,2,4-thiadiazol-5-yl]-2-methylpiperazine]	71	1.49 (≈ 3.4 µM)	
O=C(NCCN1CCN(c2nc(Cc3ccc(F)cc3)ns2)CC1)c1cccc(F)c1 [Compound 105, 3-fluoro-N-{2-[4-[3-(4-fluorobenzyl)-1,2,4-thiadiazol-5-yl]piperazin-1-yl]ethyl}benzamide]	115		
1-(phenylprop-2-ensulfonyl)-4-[3-(4-methylbenzyl)-1,2,4-thiadiazol-5-yl]-2-methylpiperazine [Compound 79]	53		0,17 µg/mL
COc1ccc(C(=O)N2CCN(c3nc(Cc4ccc(F)cc4)ns3)CC2C)cc1 (centres unmarked) [Compound 118, 1-(4-methoxybenzoyl)-4-[3-(4-fluorobenzyl)-1,2,4-thiadiazol-5-yl]-2-methylpiperazine]	64	0.0911 (≈ 0.214 µM)	
O=C(Nc1ccccc1F)N1CCN(c2nc(Cc3ccc(F)cc3)ns2)CC1 [Compound 16, N-(2-fluorophenyl)-4-[3-(4-fluorobenzyl)-1,2,4-thiadiazol-5-yl]piperazine-1-carboxamide]	72	5.68 (≈ 13.7 µM)	
COc1cccc(Cc2nsc(N3CCN(C(=O)c4ccc(C(F)(F)F)cc4)C(C)C3)n2)c1 (centres unmarked) [Compound 168, 1-(4-trifluoromethylbenzoyl)-4-[3-(3-methoxybenzyl)-1,2,4-thiadiazol-5-yl]-2-methylpiperazine]	91		
COc1ccc(S(=O)(=O)N2CCN(c3nc(Cc4cccc(F)c4)ns3)CC2)cc1 [Compound 193, 1-[4-methoxyphenylsulfonyl]-4-[3-(3-fluoro-benzyl)-1,2,4-thiadiazol-5-yl]piperazine]	68	0.0048 (≈ 0.0107 µM)	
CCc1ccc(S(=O)(=O)N2CCN(c3nc(Cc4ccc(F)cc4)ns3)CC2)cc1 [Compound 197, 1-[4-ethylphenylsulfonyl]-4-[3-(4-fluoro-benzyl)-1,2,4-thiadiazol-5-yl]piperazine]	84	0.239 (≈ 0.535 µM)	
CC1CN(c2nc(Cc3ccc(F)cc3)ns2)CCN1C(=O)c1ccc(C(C)(C)C)cc1 (centres unmarked) [Compound 128, 1-(4-tert-butylbenzoyl)-4-[3-(4-fluorobenzyl)-1,2,4-thiadiazol-5-yl]-2-methylpiperazine]	95	0.24 (≈ 0.53 µM)	
CC1CN(c2nc(Cc3ccc(F)cc3)ns2)CCN1C(=O)c1cccc(Br)c1 (centres unmarked) [Compound 142, 1-(3-bromobenzoyl)-4-[3-(4-fluorobenzyl)-1,2,4-thiadiazol-5-yl]-2-methylpiperazine]	72	0.5 (≈ 1.05 µM)	
CC1CN(c2nc(Cc3ccc(F)cc3)ns2)CCN1C(=O)c1ccc(F)cc1 (centres unmarked) [Compound 127, 1-(4-fluorobenzoyl)-4-[3-(4-fluorobenzyl)-1,2,4-thiadiazol-5-yl]-2-methylpiperazine]	108	0.23 (≈ 0.555 µM)	
CC1CN(c2nc(Cc3ccc(F)cc3)ns2)CCN1C(=O)c1ccc([N+](=O)[O-])cc1 (centres unmarked) [Compound 184, 1-(4-nitrobenzoyl)-4-[3-(4-fluorobenzyl)-1,2,4-thiadiazol-5-yl]-2-methylpiperazine]	52		
Cc1ccc(Cc2nsc(N3CCN(S(=O)(=O)c4ccc(C(C)(C)C)cc4)CC3)n2)cc1 [Compound 67, 1-[4-tert-butylphenylsulfonyl]-4-[3-(4-methylbenzyl)-1,2,4-thiadiazol-5-yl]piperazine]	41		
O=C(Nc1ccc(F)c(F)c1)N1CCN(c2nc(Cc3ccc(F)cc3)ns2)CC1 [Compound 28, N-(3,4-difluorophenyl)-4-[3-(4-fluorobenzyl)-1,2,4-thiadiazol-5-yl]piperazine-1-carboxamide]	64		
CCc1ccc(C(=O)N2CCN(c3nc(Cc4ccc(Cl)cc4)ns3)CC2)cc1 [Compound 165, 1-(4-ethylbenzoyl)-4-[3-(4-chlorobenzyl)-1,2,4-thiadiazol-5-yl]piperazine]	133		
CC1CN(c2nc(Cc3ccc(F)cc3)ns2)CCN1C(=O)c1ccc([N+](=O)[O-])cc1Cl (centres unmarked) [Compound 177, 1-(2-chloro-4-nitrobenzoyl)-4-[3-(4-fluorobenzyl)-1,2,4-thiadiazol-5-yl]-2-methylpiperazine]	77		
O=C(c1ccc(F)cc1)N1CCN(c2nc(Cc3ccc(Cl)cc3)ns2)CC1 [Compound 153, 1-(4-fluorobenzoyl)-4-[3-(4-chlorobenzyl)-1,2,4-thiadiazol-5-yl]piperazine]	53	1.44 (≈ 3.45 µM)	
O=C(c1ccc(Cl)cc1)N1CCCN(c2nc(Cc3ccc(F)cc3)ns2)CC1 [Compound 189, 1-(4-chlorobenzoyl)-4-[3-(4-fluorobenzyl)-1,2,4-thiadiazol-5-yl]-1,4-diazepane]	85	0.17 (≈ 0.394 µM)	
Cc1ccc(Cc2nsc(N3CCN(S(=O)(=O)Cc4ccccc4)CC3)n2)cc1 [Compound 77, 1-(benzylsulfonyl)-4-[3-(4-methylbenzyl)-1,2,4-thiadiazol-5-yl]piperazine]	81		
CC(=O)Nc1ccc(S(=O)(=O)N2CCN(c3nc(Cc4ccc(C)cc4)ns3)CC2)cc1 [Compound 49, 1-[4-acetamidophenylsulfonyl]-4-[3-(4-methylbenzyl)-1,2,4-thiadiazol-5-yl]piperazine]	77	0.000106 (≈ 0.000225 µM)	
CC1CN(c2nc(Cc3ccc(Cl)cc3)ns2)CCN1C(=O)c1ccccc1F (centres unmarked) [Compound 167, 1-(2-fluorobenzoyl)-4-[3-(4-chlorobenzyl)-1,2,4-thiadiazol-5-yl]-2-methylpiperazine]	117		
Cc1ccccc1C(=O)N1CCN(c2nc(Cc3ccc(F)cc3)ns2)CC1 [Compound 152, 1-(2-methylbenzoyl)-4-[3-(4-fluorobenzyl)-1,2,4-thiadiazol-5-yl]piperazine]	66	1.15 (≈ 2.9 µM)	
